Data set [1] in a line: (§1) Toxicity in L4-stage of Caenorhabditis elegans expressing dpy-18 assessed as embyronic lethality after 24 hrs by light microscopic analysis. To be noted: in vivo, read-out: LD50. In kind it is organism-based.
A further data set relates to Caenorhabditis elegans. Described as §1. As to conditions: in vivo, 24 h. It counts as organism-based.
Data set [2] can be described thus: Binding affinity to human P4H expressed in Escherichia coli using dansyl-Gly-phe-pro-Gly-OEt as substrate at 356 mM incubated up to 5 mins followed by substrate addition by competition assay in presence of alpha-ketoglutarate.
Data set [3] in a line: Binding affinity to human P4H expressed in Escherichia coli at 13 mM after 30 mins by SDS-PAGE analysis.
Data set [4] in a line: Irreversible inhibition of human P4H expressed in Escherichia coli using dansyl-Gly-phe-pro-Gly-OEt and alpha-ketoglutarate as substrate incubated up to 15 mins followed by substrate addition by Kitz-Wilson plot analysis.

SMILES strings stand for the structures. The source made the active and inactive calls. The calls are words filed in the database; no cut-off is given here.

Take `O=C([O-])CCC(=O)C1CO1.[Na+]` (racemic): the LC50 at 24 h in data set [1] was 110 µM. The Activity entry with Caenorhabditis elegans was “Dose-dependent effect”. The outcome in data set [2] and in data set [3] was Active. For the same molecule, in data set [4], the inhibition entry was “Dose-dependent effect”.

The record behind these values is ChEMBL document CHEMBL2390904, “Bioavailable affinity label for collagen prolyl 4-hydroxylase” (Bioorg Med Chem, 2013).
